{"source": "ChEMBL document CHEMBL1151531", "about": "“Taxol structure-activity relationships: synthesis and biological evaluation of taxol analogs modified at C-7” (Bioorg Med Chem Lett, 1994)", "key": {"[1]": {"test_system": "HCT-116", "test": "In vitro inhibition of proliferation of human colon cancer line 116 after 72 hrs incubation.", "format": "functional, cell-based", "details": "HCT-116, 72 h"}, "[2]": {"biological_target": "Tubulin alpha chain (Sus scrofa) (UniProt P02550)", "sequence (P02550 whole entry, looked up)": "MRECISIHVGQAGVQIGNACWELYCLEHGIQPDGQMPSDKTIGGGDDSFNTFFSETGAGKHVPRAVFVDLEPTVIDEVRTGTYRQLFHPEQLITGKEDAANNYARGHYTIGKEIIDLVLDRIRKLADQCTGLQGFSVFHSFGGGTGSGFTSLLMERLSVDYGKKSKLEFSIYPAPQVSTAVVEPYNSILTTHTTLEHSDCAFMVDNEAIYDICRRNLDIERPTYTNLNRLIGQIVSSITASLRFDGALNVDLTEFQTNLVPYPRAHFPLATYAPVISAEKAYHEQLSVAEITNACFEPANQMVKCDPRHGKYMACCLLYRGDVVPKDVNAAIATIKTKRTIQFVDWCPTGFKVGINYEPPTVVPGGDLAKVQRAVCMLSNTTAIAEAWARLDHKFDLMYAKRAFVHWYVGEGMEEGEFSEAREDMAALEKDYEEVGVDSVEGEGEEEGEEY", "test": "Initial tubulin polymerization rate relative to taxol.", "format": "functional"}, "[3]": {"test_system": "Mus musculus", "test": "Compound was evaluated in vivo against i.p. implanetd M109 tumor on day 5 and 8 post implantation at a dose of 40 mg/kg/injection when administered i.p", "format": "functional", "details": "route intraperitoneal"}, "[4]": {"test_system": "Mus musculus", "test": "Compound was evaluated in vivo against i.p. implanetd M109 tumor on day 5 and 8 post implantation at a dose of 50 (mg/kg/inj)when administered i.p", "format": "functional"}, "[5]": {"test_system": "Mus musculus", "test": "Compound was evaluated in vivo against i.p. implanetd M109 tumor on day 5 and 8 post implantation at a dose of 60 mg/kg/injection when administered i.p", "format": "functional", "details": "route intraperitoneal"}, "[6]": {"test_system": "Mus musculus", "test": "Compound was evaluated in vivo against i.p. implanetd M109 tumor on day 5 and 8 post implantation when administered i.p.; Scheduled", "format": "functional, organism-based"}, "[7]": {"test_system": "Mus musculus", "test": "Compound was evaluated in vivo against i.p. implanetd M109 tumor on day 5 and 8 post implantation at a dose of 30 mg/kg/injection when administered i.p", "format": "functional", "details": "route intraperitoneal"}, "[8]": {"test_system": "Mus musculus", "test": "Compound was evaluated in vivo against i.p. implanetd M109 tumor on day 5 and 8 post implantation at a dose of 32 mg/kg/injection when administered i.p", "format": "functional", "details": "route intraperitoneal"}, "[9]": {"test_system": "Mus musculus", "test": "Compound was evaluated in vivo against i.p. implanetd M109 tumor on day 5 and 8 post implantation at a dose of 64 mg/kg/injection when administered i.p", "format": "functional", "details": "route intraperitoneal"}, "[10]": {"test_system": "Mus musculus", "test": "Compound was evaluated in vivo against i.p. implanted M109 tumor on day 5 and 8 post implantation at a dose of 50-75 mg/kg/injection when administered i.p", "format": "functional"}, "[11]": {"test_system": "Mus musculus", "test": "Compound was evaluated in vivo against i.p. implanetd M109 tumor on day 5 and 8 post implantation at a dose of 80 mg/kg/injection when administered i.p", "format": "functional", "details": "route intraperitoneal"}, "[12]": {"test_system": "Mus musculus", "test": "Compound was evaluated in vivo against i.p. implanetd M109 tumor on day 5 and 8 post implantation at a dose of 132 mg/kg/injection when administered i.p", "format": "functional", "details": "route intraperitoneal"}}, "data": [{"smiles": "CC[Si](CC)(CC)OC1C[C@H]2OC[C@@]2(OC(C)=O)C2[C@H](OC(=O)c3ccccc3)[C@]3(O)C[C@H](OC(=O)[C@H](O)[C@@H](NC(=O)c4ccccc4)c4ccccc4)C(C)=C([C@@H](OC(C)=O)C(=O)[C@]12C)C3(C)C", "note": "(stereo partly drawn)", "values": [{"measurement": "IC50", "setting": "[1]", "value": "> 78", "unit": "nM"}, {"measurement": "Initial rate ratio", "setting": "[2]", "value": 0.53}]}, {"smiles": "CC(=O)O[C@H]1C(=O)[C@]2(C)C(O[Si](C)(C)C)C[C@H]3OC[C@@]3(OC(C)=O)C2[C@H](OC(=O)c2ccccc2)[C@]2(O)C[C@H](OC(=O)[C@H](O)[C@@H](NC(=O)c3ccccc3)c3ccccc3)C(C)=C1C2(C)C", "note": "(stereo partly drawn)", "values": [{"measurement": "IC50", "setting": "[1]", "value": "> 60", "unit": "nM"}, {"measurement": "Initial rate ratio", "setting": "[2]", "value": 0}]}, {"smiles": "CC(=O)O[C@H]1C(=O)[C@@]2(C)C([C@H](OC(=O)c3ccccc3)[C@]3(O)C[C@H](OC(=O)[C@H](O)[C@@H](NC(=O)OC(C)(C)C)c4ccccc4)C(C)=C1C3(C)C)[C@]1(OC(C)=O)CO[C@@H]1C[C@H]2F", "note": "(stereo partly drawn)", "values": [{"measurement": "IC50", "setting": "[1]", "value": 4.7, "unit": "nM"}, {"measurement": "Initial rate ratio", "setting": "[2]", "value": 0.8}, {"measurement": "Max T/C", "setting": "[3]", "value": 147}]}, {"smiles": "CC(=O)O[C@H]1C(=O)[C@]2(C)C(O[Si](C)(C)c3ccccc3)C[C@H]3OC[C@@]3(OC(C)=O)C2[C@H](OC(=O)c2ccccc2)[C@]2(O)C[C@H](OC(=O)[C@H](O)[C@@H](NC(=O)c3ccccc3)c3ccccc3)C(C)=C1C2(C)C", "note": "(stereo partly drawn)", "values": [{"measurement": "IC50", "setting": "[1]", "value": "> 78", "unit": "nM"}, {"measurement": "Initial rate ratio", "setting": "[2]", "value": 0}]}, {"smiles": "CC(=O)O[C@H]1C(=O)[C@]2(C)C(OC(=O)NCCN(C)C)C[C@H]3OC[C@@]3(OC(C)=O)C2[C@H](OC(=O)c2ccccc2)[C@]2(O)C[C@H](OC(=O)[C@H](O)[C@@H](NC(=O)c3ccccc3)c3ccccc3)C(C)=C1C2(C)C", "note": "(stereo partly drawn)", "values": [{"measurement": "IC50", "setting": "[1]", "value": "> 100", "unit": "nM"}, {"measurement": "Initial rate ratio", "setting": "[2]", "value": 0.4}]}, {"smiles": "CC(=O)O[C@H]1C(=O)[C@]2(C)CC[C@H]3OC[C@@]3(OC(C)=O)C2[C@H](OC(=O)c2ccccc2)[C@]2(O)C[C@H](OC(=O)[C@H](O)[C@@H](NC(=O)c3ccccc3)c3ccccc3)C(C)=C1C2(C)C", "note": "(stereo partly drawn)", "values": [{"measurement": "IC50", "setting": "[1]", "value": 4, "unit": "nM"}, {"measurement": "Max T/C", "setting": "[4]", "value": 157}, {"measurement": "Initial rate ratio", "setting": "[2]", "value": 0.23}]}, {"smiles": "CC(=O)O[C@H]1C(=O)[C@]2(C)C(OC(=O)NCCCC(=O)O)C[C@H]3OC[C@@]3(OC(C)=O)C2[C@H](OC(=O)c2ccccc2)[C@]2(O)C[C@H](OC(=O)[C@H](O)[C@@H](NC(=O)c3ccccc3)c3ccccc3)C(C)=C1C2(C)C", "note": "(stereo partly drawn)", "values": [{"measurement": "IC50", "setting": "[1]", "value": "> 3900", "unit": "nM"}, {"measurement": "Initial rate ratio", "setting": "[2]", "value": 0.71}]}, {"smiles": "CC(=O)O[C@H]1C(=O)[C@]2(C)C=C[C@H]3OC[C@@]3(OC(C)=O)C2[C@H](OC(=O)c2ccccc2)[C@]2(O)C[C@H](OC(=O)[C@H](O)[C@@H](NC(=O)c3ccccc3)c3ccccc3)C(C)=C1C2(C)C", "note": "(stereo partly drawn)", "values": [{"measurement": "IC50", "setting": "[1]", "value": 5, "unit": "nM"}, {"measurement": "Max T/C", "setting": "[5]", "value": 161}, {"measurement": "Initial rate ratio", "setting": "[2]", "value": 1.31}]}, {"smiles": "CC(=O)O[C@@]12CO[C@@H]1C[C@H](O)[C@@]1(C)C(=O)[C@H](O)C3=C(C)[C@@H](OC(=O)[C@H](O)[C@@H](NC(=O)OC(C)(C)C)c4ccccc4)C[C@@](O)([C@@H](OC(=O)c4ccccc4)[C@H]21)C3(C)C", "note": "[DOCETAXEL]", "values": [{"measurement": "IC50", "setting": "[1]", "value": 3, "unit": "nM"}, {"measurement": "Initial rate ratio", "setting": "[2]", "value": 2}, {"measurement": "Max T/C", "setting": "[6]", "value": "Scheduled"}]}, {"smiles": "CC(=O)O[C@H]1C(=O)[C@@]2(C)C([C@H](OC(=O)c3ccccc3)[C@]3(O)C[C@H](OC(=O)[C@H](O)[C@@H](NC(=O)c4ccccc4)c4ccccc4)C(C)=C1C3(C)C)[C@]1(OC(C)=O)CO[C@@H]1C[C@@H]2OS(C)(=O)=O", "note": "(stereo partly drawn)", "values": [{"measurement": "Initial rate ratio", "setting": "[2]", "value": 1.1}]}, {"smiles": "CCOC(=O)O[C@H]1C[C@H]2OC[C@@]2(OC(C)=O)C2[C@H](OC(=O)c3ccccc3)[C@]3(O)C[C@H](OC(=O)[C@H](O)[C@@H](NC(=O)c4ccccc4)c4ccccc4)C(C)=C([C@@H](OC(C)=O)C(=O)[C@@]21C)C3(C)C", "note": "(stereo partly drawn)", "values": [{"measurement": "IC50", "setting": "[1]", "value": 6, "unit": "nM"}, {"measurement": "Initial rate ratio", "setting": "[2]", "value": 0.72}, {"measurement": "Max T/C", "setting": "[3]", "value": 289}]}, {"smiles": "CC(=O)O[C@H]1C(=O)[C@@]2(C)C([C@H](OC(=O)c3ccccc3)[C@]3(O)C[C@H](OC(=O)[C@H](O)[C@@H](NC(=O)c4ccccc4)c4ccccc4)C(C)=C1C3(C)C)[C@]1(OC(C)=O)CO[C@@H]1C[C@H]2O", "note": "(stereo partly drawn)", "values": [{"measurement": "IC50", "setting": "[1]", "value": 2, "unit": "nM"}, {"measurement": "Max T/C", "setting": "[7]", "value": 126}, {"measurement": "Max T/C", "setting": "[8]", "value": 154}]}, {"smiles": "CCCCNC(=O)OC1C[C@H]2OC[C@@]2(OC(C)=O)C2[C@H](OC(=O)c3ccccc3)[C@]3(O)C[C@H](OC(=O)[C@H](O)[C@@H](NC(=O)c4ccccc4)c4ccccc4)C(C)=C([C@@H](OC(C)=O)C(=O)[C@]12C)C3(C)C", "note": "(stereo partly drawn)", "values": [{"measurement": "IC50", "setting": "[1]", "value": 46, "unit": "nM"}, {"measurement": "Initial rate ratio", "setting": "[2]", "value": 0.96}]}, {"smiles": "CC(=O)O[C@H]1C(=O)[C@]2(C)CC[C@H]3OC[C@@]3(OC(C)=O)C2[C@H](OC(=O)c2ccccc2)[C@]2(O)C[C@H](OC(=O)[C@H](O)[C@@H](NC(=O)OC(C)(C)C)c3ccccc3)C(C)=C1C2(C)C", "note": "(stereo partly drawn)", "values": [{"measurement": "IC50", "setting": "[1]", "value": 1.6, "unit": "nM"}, {"measurement": "Max T/C", "setting": "[9]", "value": 156}, {"measurement": "Initial rate ratio", "setting": "[2]", "value": 0.8}]}, {"smiles": "CC(=O)O[C@H]1C(=O)[C@@]2(C)[C@H]([C@H](OC(=O)c3ccccc3)[C@]3(O)C[C@H](OC(=O)[C@H](O)[C@@H](NC(=O)c4ccccc4)c4ccccc4)C(C)=C1C3(C)C)[C@]1(OC(C)=O)CO[C@@H]1C[C@@H]2O", "note": "[PACLITAXEL]", "values": [{"measurement": "Max T/C", "setting": "[10]", "value": 276}]}, {"smiles": "CC(=O)O[C@H]1C(=O)[C@@]2(C)C([C@H](OC(=O)c3ccccc3)[C@]3(O)C[C@H](OC(=O)[C@H](O)[C@@H](NC(=O)c4ccccc4)c4ccccc4)C(C)=C1C3(C)C)[C@]1(OC(C)=O)CO[C@@H]1C[C@@H]2OC(=O)CCl", "note": "(stereo partly drawn)", "values": [{"measurement": "IC50", "setting": "[1]", "value": 7, "unit": "nM"}, {"measurement": "Initial rate ratio", "setting": "[2]", "value": 0.81}]}, {"smiles": "CC(=O)O[C@H]1C(=O)[C@]23C[C@H]2C[C@H]2OC[C@@]2(OC(C)=O)C3[C@H](OC(=O)c2ccccc2)[C@]2(O)C[C@H](OC(=O)[C@H](O)[C@@H](NC(=O)c3ccccc3)c3ccccc3)C(C)=C1C2(C)C", "note": "(stereo partly drawn)", "values": [{"measurement": "IC50", "setting": "[1]", "value": 8, "unit": "nM"}, {"measurement": "Max T/C", "setting": "[11]", "value": 156}, {"measurement": "Initial rate ratio", "setting": "[2]", "value": 0.56}]}, {"smiles": "CC(=O)O[C@H]1C(=O)[C@@]2(C)C([C@H](OC(=O)c3ccccc3)[C@]3(O)C[C@H](OC(=O)[C@H](O)[C@@H](NC(=O)c4ccccc4)c4ccccc4)C(C)=C1C3(C)C)[C@]1(OC(C)=O)CO[C@@H]1C[C@H]2F", "note": "(stereo partly drawn)", "values": [{"measurement": "IC50", "setting": "[1]", "value": 11, "unit": "nM"}, {"measurement": "Max T/C", "setting": "[12]", "value": 185}, {"measurement": "Initial rate ratio", "setting": "[2]", "value": 1.45}]}]}
